System: AML patients
Test: Clinical response of relapsed or refractory AML patients treated with the FTI
Type: in vivo, human
Settings: of a total of 199 evaluable AML patients; 600 mg b.i.d. oral, first 21 days of each 28 day cycle
Procedure: In the nonprophetic examples, AML patients were administered 600 mg of (R)-6-[amino(4-chlorophenyl)(1-methyl-1H-imidazol-5-yl)methyl]-4-(3-chlorophenyl)-1-methyl-2(1H)-quinolinone) (referred to as Zamestra™) at a starting oral dose of 600 mg b.i.d. for the first 21 days of each 28 day cycle in AML. Subjects were enrolled into two cohorts, those with relapsed AML and those with refractory AML. A total of […] patients (135 relapsed and 117 refractory) were treated.
Anti-leukemic activity is defined as any bone marrow blast count less than 5% or a reduction in bone marrow blasts by at least half.
The average value of the site and DCL blast count measurements were calculated and a Student's t-test was performed to investigate if blast counts correlated with patient response in the AML patients. […] Chi-squared analysis for all evaluable patients also found a significant correlation between high blast counts and resistance to treatment (Ω^2=9.53).

Cn1cncc1[C@@](N)(c1ccc(Cl)cc1)c1ccc2c(c1)c(-c1cccc(Cl)c1)cc(=O)n2C [Zamestra]
evaluable patients who had a CR, CRp, PR, or SD: 24

Source: US20050003422A1, “Methods for assessing and treating cancer” (priority 2003, published 2005)
